Source: US20230331690A1, “THC DERIVATIVES, ORAL DOSAGE FORMS COMPRISING SAME, USES THEREOF FOR TREATING DISEASES AND DISORDERS AND SYNTHESIS THEREOF” (BAR-ILAN UNIVERSITY, priority 2020, published 2023)
“And” between values parts separate entries of the source, which are not always exact repeats. Identical values can stand only once. Like-named read-outs stand apart in the source and are kept apart here.

Columns and labels:
mice = experiment: Hot plate assay, withdrawal reflex latency (WRL); format: in vivo; conditions: for Hot plate Time: per animal
[1] = Pharmacokinetics, blood samples (Example 17); conditions: mouse, blood, ip, Component in the blood, label = analyte
Experimental: The pharmacokinetics of 9-CD3-(8-D2)-THC compared to natural THC was evaluated using both intraperitoneal i.p. injection and an oral gavage administration for each material. The mice were divided into four groups containing 6 mice (24 mice total). For each group of mice, a blood sample was withdrawn at baseline (t=0), and half-hour intervals (t=0.5, 2 and 5 h) after administration of the drug. Three mice, half of each group, were euthanized with CO2 after 5 h and their organs (brain and liver) were collected. From the second half of each group, another blood sample was withdrawn 24 h after administration, and then these animals were euthanized and the brain and liver were collected for analysis.

[2] = Pharmacokinetics, liver samples (Example 17); format: in vivo, mice; conditions: mouse, liver; for concentration at 24 h: ip; for concentration at 5 h: po
[3] = Persistence over time, blood samples (Example 18); format: in vivo, mice; conditions: label = analyte; for Average results, blood samples: 4 mg/kg administration
Experimental: (§1) Blood samples from each mouse were collected at each time point for the pharmacokinetics tests. For 6 h after administrating of all tested drugs, and after testing their WRL on the hot plate, half the mice (n=3) of each group were sacrificed, and the liver and brain of each animal were taken for pharmacokinetics tests. From the remaining mice, blood samples were acquired at 12 h after administration for pharmacokinetics tests. At 24 h after drug administration, and after checking the WRL again, second half of each group of mice were sacrificed, and the liver and brain of each animal were taken for pharmacokinetics tests.

[4] = Persistence over time, brain samples postmortem (Example 18); format: in vivo, mice
Experimental: as §1
(§2) All the results of the brain and liver samples, which were taken postmortem 6 h or 24 h after administration (n=3) are summarized in Tables 12-13.

[5] = Persistence over time, liver samples postmortem (Example 18); format: in vivo, mice; conditions: for concentration at 6 h / concentration at 24 h: mouse, liver, oral, read-out: Average results for 3 mice (Table 13, liver); for concentration at 6 h: died at 6 h
Experimental: as §1, §2

[6] = Body temperature by rectal thermometer (hypothermia)

CCCCCc1cc(O)c2c(c1)OC(C)(C)[C@@H]1CCC(C)=C[C@@H]21 [THC, Δ-9-tetrahydrocannabinol]
Hot plate Avg. 6 mice (mice; 2 mg/Kg oral, t = 0.5 h): 7.38 s
Hot plate Time (mice; 2 mg/Kg oral, t = 0.5 h): 5.7 s and 11.5 s and 8.9 s and 9.2 s and 3.2 s and 5.8 s
Hot plate Avg. 6 mice (mice; 2 mg/Kg oral, t = 3 h): 9.77 s
Hot plate Time (mice; 2 mg/Kg oral, t = 3 h): 9.5 s and 8.5 s and 18.0 s and 10.4 s and 5.3 s and 6.9 s
Hot plate Avg. 6 mice (mice; 2 mg/Kg oral, t = 6 h): 9.77 s
Hot plate Time (mice; 2 mg/Kg oral, t = 6 h): 13.5 s and 6.3 s and 12.5 s and 8.7 s and 6.6 s and 11.0 s
Hot plate Avg. 3 mice (mice; 2 mg/Kg oral, t = 24 h): 6.53 s
Hot plate Time (mice; 2 mg/Kg oral, t = 24 h): 7.8 s and 7.4 s and 4.4 s
decrease in the WRL compared to baseline (mice; 2 mg/kg, 0.5 h): 1%
change in average WRL compared to baseline (mice; 2 mg/kg, 3 h): +31%
change in average WRL compared to baseline (mice; 2 mg/kg, 6 h): +31%
Hot plate Avg. 6 mice (mice; 4 mg/Kg oral, t = 0.5 h): 12.48 s
Hot plate Time (mice; 4 mg/Kg oral, t = 0.5 h): 11.3 sec. (2×) and 19.8 sec. and 6.3 sec. and 14.0 sec. and 12.2 sec.
Hot plate Avg. 6 mice (mice; 4 mg/Kg oral, t = 3 h): 11.00 s
Hot plate Time (mice; 4 mg/Kg oral, t = 3 h): 17.3 s and 8.0 s and 9.3 s and 6.9 s and 13.9 s and 10.6 s
Hot plate Avg. 6 mice (mice; 4 mg/Kg oral, t = 6 h): 8.92 s
Hot plate Time (mice; 4 mg/Kg oral, t = 6 h): 12.1 sec. and 2.4 sec. and 3.0 sec. and 14.0 sec. (2×) and 8.0 sec.
Hot plate Avg. 3 mice (mice; 4 mg/Kg oral, t = 24 h): 10.43 s
Hot plate Time (mice; 4 mg/Kg oral, t = 24 h): 13.7 s and 12.8 s and 4.8 s
increase in the WRL compared to baseline (mice; 4 mg/kg, 0.5 h): 23%
change in average WRL compared to baseline (mice; 4 mg/kg, 3 h): +8%
change in average WRL compared to baseline (mice; 4 mg/kg, 6 h): −12%
Hot plate Avg. 6 mice (mice; 8 mg/Kg oral, t = 0.5 h): 13.22 s
Hot plate Time (mice; 8 mg/Kg oral, t = 0.5 h, cut-off 30 s): 15.2 s and 11.1 s and 14.2 s and 6.7 s and 19.6 s and 12.5 s
Hot plate Avg. 6 mice (mice; 8 mg/Kg oral, t = 3 h): 12.45 s
Hot plate Time (mice; 8 mg/Kg oral, t = 3 h, cut-off 30 s): 21.6 s and 9.0 s and 9.8 s and 9.5 s and 12.5 s and 12.3 s
Hot plate Avg. 6 mice (mice; 8 mg/Kg oral, t = 6 h): 12.03 s
Hot plate Time (mice; 8 mg/Kg oral, t = 6 h): 13.2 s and 9.2 s and 6.8 s and 16.7 s and 17.0 s and 9.3 s
Hot plate Avg. 3 mice (mice; 8 mg/Kg oral, t = 24 h): 10.27 s
Hot plate Time (mice; 8 mg/Kg oral, t = 24 h, cut-off 30 s): 8.1 s and 15.7 s and 7.0 s
average increase in WRL compared to baseline (t=0) (mice; 8 mg/kg, 0.5 h): 67.3%
change in average WRL compared to t=0 at baseline (mice; 8 mg/kg, 3 h): +57.5%
change in average WRL compared to baseline (mice; 8 mg/kg, 6 h): +52%
concentration at 0.5 h ([1]; Average, 0.5 h after i.p. injection of THC or THC-d5, n=6 (THC-d5 n=5)): 63.4 ng/mL
concentration at 0.5 h ([1]; mouse 1, 0.5 h after i.p. injection of THC or THC-d5): 76.8 ng/mL
concentration at 0.5 h ([1]; mouse 2, 0.5 h after i.p. injection of THC or THC-d5): 81.9 ng/mL
concentration at 0.5 h ([1]; mouse 3, 0.5 h after i.p. injection of THC or THC-d5): 49.5 ng/mL
concentration at 0.5 h ([1]; mouse 4, 0.5 h after i.p. injection of THC or THC-d5): 64.4 ng/mL
concentration at 0.5 h ([1]; mouse 5, 0.5 h after i.p. injection of THC or THC-d5): 53.8 ng/mL
concentration at 0.5 h ([1]; mouse 6, 0.5 h after i.p. injection of THC or THC-d5): 53.9 ng/mL
concentration at 24 h ([2]; 24 h after i.p. administration, n=3, read-out: average liver concentration): 7.62 ng/g
concentration at 24 h ([2]; 24 h after i.p. injection of THC or THC-d5, label = analyte, n=3, read-out: Component in the liver, Average): 7.62 ng/mL
concentration at 24 h ([2]; 24 h after i.p. injection of THC or THC-d5, label = analyte, read-out: Component in the liver, mouse 1): 5.55 ng/mL
concentration at 24 h ([2]; 24 h after i.p. injection of THC or THC-d5, label = analyte, read-out: Component in the liver, mouse 2): 8.46 ng/mL
concentration at 24 h ([2]; 24 h after i.p. injection of THC or THC-d5, label = analyte, read-out: Component in the liver, mouse 3): 8.86 ng/mL
concentration at 5 h ([2]; 5 h after oral gavage administration of THC or THC-d5, label = analyte, n=3, read-out: Component in the liver, Average): 3.77 ng/mL
concentration at 5 h ([2]; 5 h after oral gavage administration of THC or THC-d5, label = analyte, read-out: Component in the liver, mouse 1): 1.41 ng/mL
concentration at 5 h ([2]; 5 h after oral gavage administration of THC or THC-d5, label = analyte, read-out: Component in the liver, mouse 2): 4.94 ng/mL
concentration at 5 h ([2]; 5 h after oral gavage administration of THC or THC-d5, label = analyte, read-out: Component in the liver, mouse 3): 4.97 ng/mL
concentration at 5 h ([2]; 5 h after oral gavage administration, n=3, read-out: average liver concentration): 3.77 ng/g
Average results, blood samples ([3]; Time 3 h): 2.78 (4/6) ng/mL
Average results, blood samples ([3]; Time 6 h): 2.44 (5/5) ng/mL
Average results, blood samples ([3]; Time 24 h (3 mice)): 0.25 (2/2) ng/mL
concentration at 0.5 h ([3]; mouse, blood, oral, 4 mg/kg administration of THC or THC-d5, Time 0.5 h): 10.5 ng/mL
concentration at 0.5 h ([3]; mouse, blood, oral, 8 mg/kg administration of THC or THC-d5, Time 0.5 h): 14.3 ng/mL
concentration at 3 h ([3]; mouse, blood, oral, 8 mg/kg administration, Time 3 h): 6.53 ng/mL
concentration at 6 h ([3]; mouse, blood, oral, 8 mg/kg administration, Time 6 h): 4.14 ng/mL
concentration at 12 h ([3]; mouse, blood, oral, 8 mg/kg administration, Time 12 h (3 mice)): 0.81 ng/mL
concentration at 24 h ([3]; mouse, blood, oral, 8 mg/kg administration, Time 24 h (3 mice)): 0.26 ng/mL
presence in the brain ([4]; 24 h after administration, highest concentration of 8 mg/kg): absent
concentration at 24 h ([4]; mouse, brain, oral, 4 mg/kg administered, died at 24 h, number in brackets = mice with a value, read-out: Average results for 3 mice - brain samples): 14.1 ng/g
concentration at 6 h ([4]; mouse, brain, oral, 8 mg/kg administered, died at 6 h, number in brackets = mice with a value, read-out: Average results for 3 mice - brain samples): 16.9 ng/g
Average results for 3 mice (Table 13, liver) ([5]; 2 mg/kg administered, died at 24 h, number in brackets = mice with a value): 0.74 (2/3) ng/g
concentration at 6 h ([5]; 2 mg/kg administered): 9.18 ng/g
concentration at 6 h ([5]; 4 mg/kg administered): 11.4 ng/g
concentration at 24 h ([5]; 4 mg/kg administered, died at 24 h, number in brackets = mice with a value): 0.87 ng/g
concentration at 6 h ([5]; 8 mg/kg administered): 11.1 ng/g
concentration at 24 h ([5]; 8 mg/kg administered, died at 24 h, number in brackets = mice with a value): 3.52 ng/g
time of strongest effect on body temperature after drug administration ([6]; high concentration of 8 mg/kg oral): 0.5 h
hypothermia effect (body temperature) ([6]; medium concentration of 4 mg/kg oral): very clear hypothermia effect
Body temperature, Avg. change compared to t = 0, at t = 0.5 h ([6]; mice, avg. of 6 mice, 8 mg/kg (groups C+D), t = 0.5 h after administration): −2.1 °C
